In US7524485B2, “Skin lightening agents, compositions and methods” (Unilever Home & Personal Care, USA, Division of Conopco, …, priority 2002, dated 2009) one finds IC50 data, which are given here for three molecules.

Structures are written as SMILES. pIC50: −log10 of the molar value. Where two headings read alike, the source gives them in different places.

This experiment concerns the target T1, mushroom tyrosinase.
T1 construct: mushroom tyrosinase (Sigma T-7755)
Description: Mushroom Tyrosinase Assay. Type of experiment: biochemical. The note with it: L-DOPA substrate, pH 7.0, absorbency 475 nm, vs ethanol control. The procedure:
Mushroom tyrosinase inhibition is indicative of reduction in melanin synthesis, thereby showing skin lightening effect.
Into each well of a 96-well plate, 150 microliters of phosphate buffer (100 mM, pH 7.0), 10 microliters of L-DOPA (L-3, 4-Dihydroxyphenylalanine, 10 mM), and 20 microliters of skin lightening agent (dissolved in ethanol, which is the control) were added. Following an initial measurement of background absorbency at 475-nm, 20 microliters of mushroom tyrosinase (Sigma T-7755; 6050 units/ml) was added and incubated at room temperature.
Absorbency is read at 475-nm over the following time points: 0, 2, 4, and 6.5 minutes. The data is plotted as 475-nm absorbency vs. time (minutes) and the slope of the line is calculated (ΔAbs 475 nm/min).

Setting [1] is: Experiment 1, read-out: IC50 (Concentration) Experiment 1.
[2] abbreviates: Experiment 2, read-out: IC50 (Concentration) Experiment 2.

With `Oc1ccc(C2SCCCS2)c(O)c1` [6-member Di-Thianyl Resorcinol, 4-[2′-(1′,3′-dithiacyclohexy)]-1,3-dihydroxybenzene], the pIC50 reads like this: under setting [1], 5.77; under setting [2], 6.00.
The matching figures for `CCc1ccc(O)cc1O` [4-Ethyl Resorcinol, reference compound]: 6.26 and 6.40.
Consider `Oc1ccc(C2SCCS2)c(O)c1` [5-member Di-Thianyl Resorcinol, 4-[2′-(1′,3′-dithiacyclopenty)]-1,3-dihydroxybenzene], for which the pIC50 runs as follows: under setting [1], 5.42; under setting [2], 5.60.
